In brackets after ≈: the same amount, converted by molar mass. Where two headings read alike, the source gives them in different places. One block for each compound: values may come before it.
Experiments:
[1] = target: T1, S. aureus RnpA (Staphylococcus aureus, UniProt P0A0H5); assay: S. aureus RnpA activity; type: biochemical; conditions: data not shown
T1 sequence (P0A0H5 1-117): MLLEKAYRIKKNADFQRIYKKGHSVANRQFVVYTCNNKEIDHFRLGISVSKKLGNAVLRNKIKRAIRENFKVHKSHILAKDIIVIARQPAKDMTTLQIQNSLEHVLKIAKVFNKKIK

[2] = target: S. aureus topoisomerase IV (Staphylococcus aureus, UniProt P0C1S7+P0C1U9); assay: S. aureus topoisomerase IV decatenation assay; type: biochemical
[3] = tested on: S. aureus RNase J2; assay: S. aureus RNase J2 activity; type: biochemical; conditions: data not shown
[4] = tested on: S. aureus strain UAMS-1; assay: microbe, parasite or virus in culture; type: cell-based, Staphylococcus aureus; conditions: for MIC: Staphylococcus aureus, UAMS1, 16 h, read-out: S. aureus MIC, strain UAMS-1, planktonic cells, MHB, 37 °C, 16 h; for fold reduction in activity compared to 4g: S. aureus MIC
[5] = target: S. aureus DNA gyrase (Staphylococcus aureus, UniProt P0A0K8+P20831); assay: S. aureus DNA gyrase supercoiling assay; type: biochemical; conditions: tested at 100 μM, gel (Figure 4B)
[6] = tested on: methicillin-resistant (MRSA), vancomycin-intermediate (VISA), vancomycin-resistant (VRSA) S. aureus, fluoroquinolone resistant strains; type: cell-based, Staphylococcus aureus; conditions: toward MRSA, VRSA S. aureus and fluoroquinolone resistant strains
[7] = strain UAMS-1, compared to the hit 1a

effect on activity of S. aureus RnpA [1]: did not appear to affect the activity | topoisomerase IV inhibitory activity (in words) ([2]; dose–response gel (Figure 5A)): moderate | effect on activity of S. aureus RNase J2 [3]: did not appear to affect the activity
SMILES: CC(C)(C)c1ccc(C(O)CCCN2CCC(C(O)(c3ccccc3)c3ccccc3)CC2)cc1 (stereo not drawn) [1a, 1-(4-(tert-Butyl)phenyl)-4-(4-(hydroxydiphenylmethyl)piperidin-1-yl)butan-1-ol]

SMILES: COc1ccc(C(O)CCCN2CCC(C(O)(c3ccccc3)c3ccccc3)CC2)cc1 (stereo not drawn) [1h, 1-(4-Methoxyphenyl)-4-(4-(hydroxydiphenylmethyl)piperidin-1-yl)butan-1-ol]
S. aureus antimicrobial activity (in words) [4, 7]: loss of antimicrobial activity

SMILES: COC(=O)c1ccc(C(O)CCCN2CCC(C(O)(c3ccccc3)c3ccccc3)CC2)cc1 (stereo not drawn) [1i, Methyl 4-(1-Hydroxy-4-(4-(hydroxydiphenylmethyl)piperidin-1-yl)butyl)benzoate]
MIC [4]: > 256 µg/mL | S. aureus antimicrobial activity (in words) [4, 7]: loss of antimicrobial activity | IC50 [2]: > 333 µM

SMILES: O=C(O)c1ccc(C(O)CCCN2CCC(C(O)(c3ccccc3)c3ccccc3)CC2)cc1 (stereo not drawn) [1m, 4-(1-Hydroxy-4-(4-(hydroxydiphenylmethyl)piperidin-1-yl)butyl)benzoic Acid]
S. aureus antimicrobial activity (in words) [4, 7]: loss of antimicrobial activity

SMILES: COC(=O)C(C)(C)c1ccc(C(O)CCCN2CCC(C(O)(c3ccccc3)c3ccccc3)CC2)cc1 (stereo not drawn) [1o, Methyl 2-(4-(1-Hydroxy-4-(4-(hydroxydiphenylmethyl)piperidin-1-yl)butyl)phenyl)-2-methylpropanoate]
S. aureus antimicrobial activity (in words) [4, 7]: loss of antimicrobial activity

SMILES: CC(C)(C(=O)O)c1ccc(C(O)CCCN2CCC(C(O)(c3ccccc3)c3ccccc3)CC2)cc1 (stereo not drawn) [1p, 2-(4-(1-Hydroxy-4-(4-(hydroxydiphenylmethyl)piperidin-1-yl)butyl)phenyl)-2-methyl propanoic Acid, reference compound]
S. aureus antimicrobial activity (in words) [4]: loss of antimicrobial activity

SMILES: CC(C)(C)c1ccc(C(N)CCCN2CCC(C(O)(c3ccccc3)c3ccccc3)CC2)cc1 (stereo not drawn) [2g, (1-(4-Amino-4-(4-(tert-butyl)phenyl)butyl)piperidin-4-yl)diphenylmethanol]
MIC [4]: 16 to 32 µg/mL (≈ 34 to 68 µM) | S. aureus antimicrobial activity (in words) [4, 7]: no change in activity

SMILES: CC(C)(C)c1ccc([C@@H](O)CCCN2CCC(C(O)(c3ccccc3)c3ccccc3)CC2)cc1 [2h, (S)-1-(4-(tert-Butyl)phenyl)-4-(4-(hydroxydiphenylmethyl)piperidin-1-yl)butan-1-ol]
S. aureus antimicrobial activity (in words) [4, 7]: no change in activity

SMILES: CC(C)(C)c1ccc([C@H](O)CCCN2CCC(C(O)(c3ccccc3)c3ccccc3)CC2)cc1 [2i, (R)-1-(4-(tert-Butyl)phenyl)-4-(4-(hydroxydiphenylmethyl)piperidin-1-yl)butan-1-ol]
S. aureus antimicrobial activity (in words) [4, 7]: no change in activity

IC50 [2]: > 333 µM
SMILES: OC(c1ccccc1)(c1ccccc1)C1CCN(CCc2ccc(F)cc2)CC1 [3c, (1-(4-Fluorophenethyl)piperidin-4-yl)diphenylmethanol]

SMILES: OC(c1ccccc1)(c1ccccc1)C1CCN(CCc2ccc(Cl)cc2)CC1 [3d, (1-(4-Chlorophenethyl)piperidin-4-yl)diphenylmethanol]
MIC [4]: 16 to 32 µg/mL (≈ 39.4 to 78.8 µM)

SMILES: OC(c1ccccc1)(c1ccccc1)C1CCN(CCc2ccc(Br)cc2)CC1 [3e, (1-(4-Bromophenethyl)piperidin-4-yl)diphenylmethanol]
MIC [4]: 16 to 32 µg/mL (≈ 35.5 to 71 µM)

IC50 [2]: > 333 µM
SMILES: COc1ccc(CCN2CCC(C(O)(c3ccccc3)c3ccccc3)CC2)cc1 [3g, (1-(4-Methoxyphenethyl)piperidin-4-yl)diphenylmethanol]

IC50 [2]: > 333 µM
SMILES: CC(C)(C)c1ccc(CCN2CCC(C(O)(c3ccccc3)c3ccccc3)CC2)cn1 [3h, (1-(2-(6-(tert-Butyl)pyridin-3-yl)ethyl)piperidin-4-yl)diphenylmethanol]

IC50 [2]: > 333 µM
SMILES: CN(C)c1ccc(CCN2CCC(C(O)(c3ccccc3)c3ccccc3)CC2)cc1 [3k, (1-(4-(Dimethylamino)phenethyl)piperidin-4-yl)diphenylmethanol]

SMILES: OC(c1ccccc1)(c1ccccc1)C1CCN(CCc2ccc(-c3cccnc3)cc2)CC1 [3n, (1-(4-(Pyridin-3-yl)phenethyl)piperidin-4-yl)diphenylmethanol]
MIC [4]: 16 to 32 µg/mL (≈ 35.7 to 71.3 µM)

IC50 [2]: > 333 µM
SMILES: CC1(c2ccc(CCN3CCC(C(O)(c4ccccc4)c4ccccc4)CC3)cc2)COC1 [3o, (1-(4-(3-Methyloxetan-3-yl)phenethyl)piperidin-4-yl)diphenylmethanol]

SMILES: OC(c1ccccc1)(c1ccccc1)C1CCN(Cc2ccc(-c3ccsc3)cc2)CC1 [4ff]
fold reduction in activity compared to 4g [4]: 4– 8 fold

inhibition of S. aureus DNA gyrase supercoiling activity in comparison to terfenadine [5]: improved inhibition
SMILES: OC(c1ccccc1)(c1ccccc1)C1CCN(Cc2ccc(-c3ccccc3)cc2)CC1 [4g, (1-([1,1′-Biphenyl]-4-ylmethyl)piperidin-4-yl)diphenylmethanol]

SMILES: OC(c1ccccc1)(c1ccccc1)C1CCN(Cc2ccc(-c3cccs3)cc2)CC1 [4gg, (1-(4-(Thiophen-2-yl)benzyl)piperidin-4-yl)diphenylmethanol]
fold reduction in activity compared to 4g [4]: 4– 8 fold

SMILES: OC(c1ccccc1)(c1ccccc1)C1CCN(Cc2ccc(-c3ccoc3)cc2)CC1 [4hh, (1-(4-(Furan-3-yl)benzyl)piperidin-4-yl)diphenylmethanol]
fold reduction in activity compared to 4g [4]: 4– 8 fold

SMILES: OC(c1ccccc1)(c1ccccc1)C1CCN(Cc2ccc(-c3ccco3)cc2)CC1 [4ii, (1-(4-(Furan-2-yl)benzyl)piperidin-4-yl)diphenylmethanol]
fold reduction in activity compared to 4g [4]: 4– 8 fold

IC50 [2]: > 333 µM
SMILES: CC(C)(C)c1ccc(C(O)CCCN2CCC(C(O)c3ccccc3)CC2)cc1 (stereo not drawn) [5a, 1-(4-(tert-Butyl)phenyl)-4-(4-(hydroxy(phenyl)methyl)piperidin-1-yl)butan-1-ol]

IC50 [2]: > 333 µM
SMILES: CC(C)(C)c1ccc(C(O)CCCN2CCC(Cc3ccccc3)CC2)cc1 (stereo not drawn) [5b, 4-(4-Benzylpiperidin-1-yl)-1-(4-(tert-butyl)phenyl)butan-1-ol]

SMILES: CC(C)(C)c1ccc(C(O)CCCN2CCC(C(c3ccccc3)c3ccccc3)CC2)cc1 (stereo not drawn) [5e, 4-(4-Benzhydrylpiperidin-1-yl)-1-(4-(tert-butyl)phenyl)butan-1-ol]
S. aureus antimicrobial activity (in words) [4, 7]: tolerated

inhibition of S. aureus DNA gyrase supercoiling activity in comparison to terfenadine [5]: improved inhibition
SMILES: O=C(O)c1cn(C2CC2)c2cc(N3CCNCC3)c(F)cc2c1=O [ciprofloxacin, reference compound]

SMILES: OC(c1ccccc1)(c1ccccc1)C1CCN(CCCOc2ccc(-c3ccccc3)cc2)CC1 [compound 6, (1-(3-([1,1′-Biphenyl]-4-yloxy)propyl)piperidin-4-yl)diphenylmethanol]
MIC [6]: approximately 2 μg/mL | inhibition of S. aureus DNA gyrase supercoiling activity in comparison to terfenadine [5]: improved inhibition
